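A five-concentration, 48-hour dose response in 96-well plates underlies each endpoint, interpolated linearly between surrounding concentrations. TGI is the concentration that stops growth completely.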

Consider 14 compounds from PubChem BioAssay (NCI).

Some test systems named below: HOP-62 NSCLC; HT29 colon; MDA-N; NCI-H226 lung; NCI-H460 lung; NCI-H522 lung; OVCAR-5 ovarian; SNB-75 CNS; SR leukemia; NCI-H23 lung.
Common to all, as to test: DTP human tumour cell line panel, 48 h

Consider `Cc1ccccc1C(O)(c1nccn1C)c1nccn1C`, for which the TGI in the assay on HOP-62 NSCLC, in the assay on HT29 colon, in the assay with MDA-N, in the assay with NCI-H226 lung, with NCI-H460 lung and in the assay on NCI-H522 lung was more than 100 µM throughout. Besides, the TGI in the assay with OVCAR-5 ovarian, in the assay on SNB-75 CNS and in the assay with SR leukemia was more than 100 µM in each case.
As for `O=C(/C=C/c1ccsc1)c1ccsc1`, the TGI in the assay with HOP-62 NSCLC was more than 100 µM; with HT29 colon, 74.8 µM; in the assay on MDA-N, 49.7 µM; in the assay on NCI-H226 lung, 39 µM; with NCI-H23 lung it was 54.8 µM; in the assay on NCI-H460 lung it was 69.6 µM. Further, the TGI is more than 100 µM in the assay on SNB-75 CNS and 46.5 µM in the assay with SR leukemia.
For the compound `CS(=O)(=O)OCCn1c(=O)n(CCOS(C)(=O)=O)c(=O)n(CCOS(C)(=O)=O)c1=O`, the TGI in the assay on HOP-62 NSCLC, in the assay with HT29 colon, with MDA-N, in the assay with NCI-H226 lung, with NCI-H23 lung and in the assay on NCI-H460 lung was more than 100 µM in each case. The TGI with OVCAR-5 ovarian, in the assay on SNB-75 CNS and with SR leukemia was more than 100 µM each time.
Regarding `NNC(=O)c1ccc[n+](CCc2ccccc2)c1`, the TGI in the assay on HOP-62 NSCLC, with HT29 colon, with MDA-N, in the assay on NCI-H226 lung, with NCI-H23 lung and with NCI-H460 lung was more than 100 µM throughout. The TGI in the assay with NCI-H522 lung, in the assay with OVCAR-5 ovarian and with SNB-75 CNS was more than 100 µM each time.
Turning to `Cc1cc2[nH]c3[nH]c(=O)[nH]c(=O)c3c2cc1C`, the TGI with HOP-62 NSCLC, in the assay with HT29 colon, with MDA-N, with NCI-H226 lung, with NCI-H23 lung and in the assay on NCI-H522 lung was more than 100 µM each time. Moreover, the TGI with OVCAR-5 ovarian, in the assay on SNB-75 CNS and with SR leukemia was more than 100 µM in each case.
Regarding `COc1ccc(CC(O)CN2CCOCC2)cc1` (stereo not drawn), the TGI in the assay on HOP-62 NSCLC, in the assay with HT29 colon, in the assay with MDA-N, in the assay on NCI-H226 lung, in the assay with NCI-H23 lung and in the assay with NCI-H460 lung was more than 100 µM each time. For the same compound, the TGI in the assay on NCI-H522 lung, in the assay with OVCAR-5 ovarian and in the assay on SR leukemia was more than 100 µM each time.
With `O=C(CCCN1CCC2(CC1)CC(=O)N(N1CCOCC1)C2=O)c1ccccc1`, the TGI with HOP-62 NSCLC, in the assay with HT29 colon, with MDA-N, with NCI-H226 lung, with NCI-H23 lung and in the assay on NCI-H522 lung was more than 100 µM throughout. Moreover, the TGI in the assay with OVCAR-5 ovarian, in the assay with SNB-75 CNS and with SR leukemia was more than 100 µM each time.
Consider `C=C[C@@H]1C(CO)=CCC2[C@H]1CCC1C(C)(C)C(=O)CC[C@]21C` (stereo partly drawn), for which the TGI in the assay on HOP-62 NSCLC, in the assay on HT29 colon, in the assay with MDA-N, in the assay with NCI-H226 lung, in the assay with NCI-H23 lung and with NCI-H460 lung was more than 100 µM each time. Moreover, the TGI in the assay with NCI-H522 lung, in the assay with OVCAR-5 ovarian and in the assay on SR leukemia was more than 100 µM in each case.
Turning to `CN(C)c1ccc(C=C2N=C(c3ccccc3)N(c3cc(C(=O)c4ccccc4)ccc3N3C(=O)/C(=C/c4ccc(N(C)C)cc4)N=C3c3ccccc3)C2=O)cc1`, the TGI in the assay with HOP-62 NSCLC was more than 100 µM; in the assay with HT29 colon, 24.7 µM; with MDA-N, 6.03 µM; with NCI-H460 lung, more than 100 µM; in the assay on OVCAR-5 ovarian, more than 100 µM; in the assay on SNB-75 CNS, 78.9 µM. The TGI with SR leukemia was more than 100 µM.
With `COC(=O)[C@]12CC[C@H]3CN(C(=O)OCc4ccccc4)[C@H]([C@H]31)[C@H](c1ccco1)N2S(=O)(=O)c1ccc(C)cc1`, the TGI is 74.2 µM with HOP-62 NSCLC; 58.7 µM with HT29 colon; 50.4 µM in the assay on MDA-N; 58.7 µM in the assay on NCI-H226 lung; 48.5 µM with NCI-H23 lung; 87.8 µM in the assay with NCI-H460 lung. Moreover, the TGI in the assay with NCI-H522 lung is 45.7 µM; in the assay with OVCAR-5 ovarian, more than 100 µM; in the assay on SR leukemia, 81 µM.
Turning to `C(=N\NC1=NCCCN1)/c1ccc2ccccc2c1`, the TGI with HOP-62 NSCLC turned out to be 26.5 µM; in the assay with HT29 colon it was 23 µM; with MDA-N it was 22.5 µM; in the assay with NCI-H226 lung, 27.1 µM; in the assay with NCI-H23 lung, 36.6 µM; with NCI-H460 lung it was 17.4 µM. The TGI is 32.4 µM with NCI-H522 lung, 21.8 µM with OVCAR-5 ovarian and 18.4 µM with SNB-75 CNS.
With `COc1ccc(C(OCC2OC(n3cc(C)c(=O)[nH]c3=O)CC2n2cc(Cn3cc(F)c(=O)[nH]c3=O)nn2)(c2ccccc2)c2ccccc2)cc1` (stereo not drawn), the concentration for total growth inhibition (TGI) in the assay with HOP-62 NSCLC was 25.7 µM; with HT29 colon, more than 100 µM; in the assay with MDA-N, 3.53 µM; in the assay on NCI-H226 lung it was 36.7 µM; in the assay on NCI-H23 lung it was 27.9 µM; in the assay on NCI-H522 lung, 21.5 µM. Further, the concentration for total growth inhibition (TGI) in the assay with OVCAR-5 ovarian came out at 35.5 µM; with SNB-75 CNS, 42.5 µM; with SR leukemia it was 8.84 µM.
Consider `CO[C@]12CC(=O)C3(C(C[C@H]4CC5CC=C6C[C@@H](OC(C)=O)CC[C@]6(OC(C)=O)C5C[C@@]43C)C1)C1C[C@H]3[C@@H]4CC=C5C[C@@H](OC(C)=O)CC[C@]5(OC(C)=O)[C@H]4CC[C@]3(C)C12` (stereo partly drawn), for which the TGI came to 37.9 µM in the assay with HOP-62 NSCLC; 29.5 µM in the assay on HT29 colon; 30.6 µM in the assay with MDA-N; 39 µM with NCI-H23 lung; 47.8 µM in the assay with NCI-H460 lung; 31.7 µM in the assay with NCI-H522 lung. Moreover, the values for the TGI in the assay on OVCAR-5 ovarian, with SNB-75 CNS and with SR leukemia were 43.5 µM, 94.2 µM and more than 100 µM, respectively.
On to `Cc1c2c(n(CCc3ccc(Cl)cc3)c1C)NN=C(C#N)S2(=O)=O`, for which the TGI in the assay with HOP-62 NSCLC, with HT29 colon, in the assay on MDA-N, with NCI-H226 lung, with NCI-H23 lung and with NCI-H460 lung was more than 100 µM each time. Also, the TGI with OVCAR-5 ovarian, in the assay on SNB-75 CNS and in the assay with SR leukemia was more than 100 µM each time.

The TGI is the concentration giving total growth inhibition. A lower TGI goes with more potent growth arrest.
